A short description of series [1]: Toxicity in mouse xenografted with human HPAC cells assessed as tolerance at 30 to 300 mg/kg, po measured after 24 hrs. Type of series: organism-based. To be noted: in vivo, dose 30-300 mg/kg.
The test system of the next series is Cytochrome P450. Nature of the series: Time dependent inhibition of CYP (unknown origin). The following applies: human. Format: ADME, protein assay.
Another series addresses Aurora kinase B (Homo sapiens, UniProt Q96GD4). Nature of the series: Binding affinity to Aurora B (unknown origin) in presence of ATP.
The nature of series [2]: Apparent permeability across apical to basolateral side in human Caco-2 cells at 50 uM incubated for 120 mins by LC-MS analysis. Type of series: ADME, cell-based.
Series [3] in a line: Oral bioavailability in Non human primate at […]. Format: ADME, organism-based. The following applies: primates, in vivo, dose 1.5 mg/kg.
The subject of series [4] is Primates. Nature of the series: Clearance in Non human primate assessed as hepatic blood flow at […], po or 1 mg/kg, iv. Format: ADME, organism-based. The following applies: in vivo, dose 1.5 mg/kg.
A short description of series [5]: Oral bioavailability in Sprague-Dawley rat at 3 mg/kg measured after 24 hrs by LC-MS/MS analysis. Format: ADME, organism-based. To be noted: in vivo.
Series [6] addresses High affinity nerve growth factor receptor (Homo sapiens, UniProt P04629). Nature of the series: Binding affinity to TRKA (unknown origin) in presence of ATP.
The next series addresses T1, Cytochrome P450 2B6 (Homo sapiens, UniProt P20813).
T1 sequence (P20813 whole entry): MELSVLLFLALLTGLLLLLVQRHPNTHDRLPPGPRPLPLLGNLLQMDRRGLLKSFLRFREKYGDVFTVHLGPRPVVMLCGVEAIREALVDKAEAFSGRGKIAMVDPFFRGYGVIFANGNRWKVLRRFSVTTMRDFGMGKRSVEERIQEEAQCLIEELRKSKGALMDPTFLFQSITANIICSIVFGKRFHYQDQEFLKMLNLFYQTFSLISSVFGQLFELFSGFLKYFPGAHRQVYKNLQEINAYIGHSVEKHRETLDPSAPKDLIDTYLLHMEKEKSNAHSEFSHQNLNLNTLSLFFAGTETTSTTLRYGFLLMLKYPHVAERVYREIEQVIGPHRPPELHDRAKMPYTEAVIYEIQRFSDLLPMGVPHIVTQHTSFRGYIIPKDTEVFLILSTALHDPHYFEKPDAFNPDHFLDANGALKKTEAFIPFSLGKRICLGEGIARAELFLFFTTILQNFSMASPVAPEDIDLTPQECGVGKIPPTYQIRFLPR
Nature of the series: Inhibition of CYP2B6 (unknown origin). Type of series: ADME.

Series [7] can be described thus: Cmax in Non human primate at […], po or 1 mg/kg, iv. To be noted: primates, in vivo, dose 1.5 mg/kg. Type of series: ADME, organism-based.
The target in a further series is Cytochrome P450 2D6 (Homo sapiens, UniProt P10635). In words: Inhibition of CYP2D6 (unknown origin). Format: ADME.
A further series addresses Cytochrome P450 3A4 (Homo sapiens, UniProt P08684). In words: Inhibition of CYP3A4 (unknown origin). Format: ADME.
Series [8] is described as follows: Half-life in Sprague-Dawley rat at 3 mg/kg, po or 1 mg/kg, iv measured after 24 hrs by LC-MS/MS analysis. Format: ADME, organism-based. To be noted: in vivo.
Series [9] can be described thus: Intrinsic clearance in human liver microsomes at 1 uM measured upto 30 mins in presence of NADPH by LC/MS analysis. Format: ADME, Microsome. To be noted: read-out: CLH (converted). In general terms: Microsomes from liver hold many membrane-bound enzymes, among them those of drug oxidation.
Series [10] can be described thus: Solubility of compound in FASSIF. Format: physicochemical.
Series [11] can be described thus: AUC in Sprague-Dawley rat at 3 mg/kg, po or 1 mg/kg, iv measured after 24 hrs by LC-MS/MS analysis. Format: ADME, organism-based. To be noted: in vivo.
The nature of series [12]: Drug concentration in mouse plasma xenografted with HPAC cells at 100 mg/kg, po measured after 24 hrs. Type of series: ADME, organism-based.
Series [13] is described as follows: Half-life in Non human primate at […], po or 1 mg/kg, iv. Format: ADME, organism-based. To be noted: primates, in vivo, dose 1.5 mg/kg.
Series [14] in a line: AUC in Non human primate at […], po or 1 mg/kg, iv. Type of series: ADME, organism-based. The following applies: primates, in vivo, dose 1.5 mg/kg.
Series [15] can be described thus: Clearance in Sprague-Dawley rat assessed as hepatic blood flow at 3 mg/kg, po or 1 mg/kg, iv measured after 24 hrs by LC-MS/MS analysis. The following applies: in vivo. Type of series: ADME, organism-based.
In another series the target is T2, Cytochrome P450 1A2 (Homo sapiens, UniProt P05177).
T2 sequence (P05177 whole entry): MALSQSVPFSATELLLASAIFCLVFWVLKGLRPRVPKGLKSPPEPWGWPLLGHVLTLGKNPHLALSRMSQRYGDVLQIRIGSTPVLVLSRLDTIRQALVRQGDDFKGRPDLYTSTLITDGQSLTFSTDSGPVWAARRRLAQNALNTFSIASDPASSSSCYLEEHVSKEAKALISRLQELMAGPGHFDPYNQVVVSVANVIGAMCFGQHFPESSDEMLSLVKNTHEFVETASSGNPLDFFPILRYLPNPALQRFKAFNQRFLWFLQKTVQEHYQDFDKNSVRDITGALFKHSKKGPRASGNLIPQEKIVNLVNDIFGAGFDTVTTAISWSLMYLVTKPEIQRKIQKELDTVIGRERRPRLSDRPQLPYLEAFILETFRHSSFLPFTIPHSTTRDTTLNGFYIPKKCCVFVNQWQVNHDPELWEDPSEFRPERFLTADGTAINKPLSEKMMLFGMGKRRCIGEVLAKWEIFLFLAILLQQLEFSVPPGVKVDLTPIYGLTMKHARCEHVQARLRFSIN
In words: Inhibition of CYP1A2 (unknown origin). Format: ADME.

A short description of series [16]: Cmax in Sprague-Dawley rat at 3 mg/kg, po or 1 mg/kg, iv measured after 24 hrs by LC-MS/MS analysis. Format: ADME, organism-based. The following applies: in vivo.
A short description of series [17]: Solubility of compound in SGF. Format: physicochemical.
Series [18] can be described thus: Drug concentration in mouse plasma xenografted with HPAC cells at 300 mg/kg, po measured after 24 hrs. Format: ADME, organism-based.
Series [19] deals with Voltage-gated inwardly rectifying potassium channel KCNH2 (Homo sapiens, UniProt Q12809). Nature of the series: Inhibition of human ERG. Type of series: toxicity.
For another series, the target named is Cytochrome P450 2C9 (Homo sapiens, UniProt P11712). In words: Inhibition of CYP2C9 (unknown origin). Type of series: ADME.
Series [20] in a line: In vivo inhibition of ERK phosphorylation in tumor of mouse xenografted with HPAC cells at 6 mg/kg, po measured after 4 hrs relative to control. Type of series: functional.
The nature of series [21]: Inhibition of ERK phosphorylation in KRAS G12D mutant dependent human HPAF-II cells incubated for 2 hrs with human whole blood containing compound by HTRF assay. Format: cell-based. A general note: Time-resolved FRET reads energy transfer from a long-lived donor to a nearby acceptor.
Series [22] addresses GTPase KRas (Homo sapiens, UniProt P01116, G12D). In words: Inhibition of bodipy-loaded KRAS G12D mutant (unknown origin) assessed as GDP-GTP exchange preincubated for 4 hrs followed by GppNHp and SOS1 addition and measured after 2 hrs by fluorescence based plate reader analysis.
Series [23] can be described thus: Inhibition of ERK phosphorylation in KRAS G12D mutant dependent human HPAF-II cells incubated for 2 hrs by HTRF assay. Type of series: cell-based.
Series [24] is described as follows: Efflux ratio of apparent permeability in human Caco-2 cells at 50 uM incubated for 120 mins by LC-MS analysis. Format: ADME, cell-based. Background: Passage across Caco-2 layers is used to estimate intestinal permeability.
Series [25] in a line: Oral bioavailability in Non human primate at 2.0 mg/kg. Format: ADME, organism-based. The following applies: primates, in vivo.
Series [26] is described as follows: Half-life in Non human primate at 2.0 mg/kg, po or 0.5 mg/kg, iv. Type of series: ADME, organism-based. The following applies: primates, in vivo.
Series [27] relates to Primates. In words: Clearance in Non human primate at 2.0 mg/kg, po or 0.5 mg/kg, iv. Format: ADME, organism-based. To be noted: in vivo.
Series [28] in a line: Cmax in Non human primate at 2.0 mg/kg, po or 0.5 mg/kg, iv. Format: ADME, organism-based. To be noted: primates, in vivo.
Series [29] concerns Primates. In words: Clearance in Non human primate assessed as hepatic blood flow at 2.0 mg/kg, po or 0.5 mg/kg, iv. Type of series: ADME, organism-based. The following applies: in vivo.
Series [30] deals with Primates. In words: AUC in Non human primate at 2.0 mg/kg, po or 0.5 mg/kg, iv. Format: ADME, organism-based. The following applies: in vivo.
The target of series [31] is GTPase KRas (Homo sapiens, UniProt P01116). In words: Binding affinity to KRAS (unknown origin) assessed as dissociation constant by SPR analysis.

The values below come from ChEMBL document CHEMBL6087482, “Discovery of INCB159020, an Orally Bioavailable KRAS G12D Inhibitor” (J Med Chem, 2025).

Bounds are passed on as bounds.

Sequence of Cytochrome P450 2C9 (P11712 whole entry): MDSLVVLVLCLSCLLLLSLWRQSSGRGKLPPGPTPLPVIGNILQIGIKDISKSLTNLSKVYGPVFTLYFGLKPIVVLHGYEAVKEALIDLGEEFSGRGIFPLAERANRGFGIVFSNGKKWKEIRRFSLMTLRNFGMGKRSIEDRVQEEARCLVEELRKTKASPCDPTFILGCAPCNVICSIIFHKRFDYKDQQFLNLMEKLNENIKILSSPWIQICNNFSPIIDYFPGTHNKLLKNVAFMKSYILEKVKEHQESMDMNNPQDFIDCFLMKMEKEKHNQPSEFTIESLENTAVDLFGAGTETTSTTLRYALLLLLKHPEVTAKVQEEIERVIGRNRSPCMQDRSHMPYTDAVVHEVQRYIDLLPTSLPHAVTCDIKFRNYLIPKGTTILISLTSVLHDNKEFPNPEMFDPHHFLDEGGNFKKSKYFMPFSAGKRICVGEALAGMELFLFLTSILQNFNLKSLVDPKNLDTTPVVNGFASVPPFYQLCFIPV
Sequence of Cytochrome P450 2D6 (P10635 whole entry): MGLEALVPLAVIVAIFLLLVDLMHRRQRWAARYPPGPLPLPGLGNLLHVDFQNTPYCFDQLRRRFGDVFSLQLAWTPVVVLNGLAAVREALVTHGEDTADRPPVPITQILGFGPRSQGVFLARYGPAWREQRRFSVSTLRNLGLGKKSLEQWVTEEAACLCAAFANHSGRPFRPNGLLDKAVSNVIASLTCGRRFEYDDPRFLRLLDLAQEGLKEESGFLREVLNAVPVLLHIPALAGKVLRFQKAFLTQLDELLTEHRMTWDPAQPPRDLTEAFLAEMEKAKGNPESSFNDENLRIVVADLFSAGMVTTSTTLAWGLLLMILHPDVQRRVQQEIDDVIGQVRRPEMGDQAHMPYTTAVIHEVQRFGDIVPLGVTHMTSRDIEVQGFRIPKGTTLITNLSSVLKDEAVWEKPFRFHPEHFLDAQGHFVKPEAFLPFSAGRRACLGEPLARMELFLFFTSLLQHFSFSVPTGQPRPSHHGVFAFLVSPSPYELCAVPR
Sequence of Aurora kinase B (Q96GD4 whole entry): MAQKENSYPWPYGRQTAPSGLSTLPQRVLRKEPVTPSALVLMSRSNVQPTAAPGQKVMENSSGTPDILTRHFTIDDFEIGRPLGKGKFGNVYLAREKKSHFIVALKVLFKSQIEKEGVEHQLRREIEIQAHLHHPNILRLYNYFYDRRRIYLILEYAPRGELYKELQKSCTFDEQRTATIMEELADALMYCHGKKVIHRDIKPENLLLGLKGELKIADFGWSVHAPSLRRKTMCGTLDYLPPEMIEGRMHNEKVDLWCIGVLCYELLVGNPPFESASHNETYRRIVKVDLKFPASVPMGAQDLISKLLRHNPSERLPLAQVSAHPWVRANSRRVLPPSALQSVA
Sequence of Cytochrome P450 3A4 (P08684 whole entry): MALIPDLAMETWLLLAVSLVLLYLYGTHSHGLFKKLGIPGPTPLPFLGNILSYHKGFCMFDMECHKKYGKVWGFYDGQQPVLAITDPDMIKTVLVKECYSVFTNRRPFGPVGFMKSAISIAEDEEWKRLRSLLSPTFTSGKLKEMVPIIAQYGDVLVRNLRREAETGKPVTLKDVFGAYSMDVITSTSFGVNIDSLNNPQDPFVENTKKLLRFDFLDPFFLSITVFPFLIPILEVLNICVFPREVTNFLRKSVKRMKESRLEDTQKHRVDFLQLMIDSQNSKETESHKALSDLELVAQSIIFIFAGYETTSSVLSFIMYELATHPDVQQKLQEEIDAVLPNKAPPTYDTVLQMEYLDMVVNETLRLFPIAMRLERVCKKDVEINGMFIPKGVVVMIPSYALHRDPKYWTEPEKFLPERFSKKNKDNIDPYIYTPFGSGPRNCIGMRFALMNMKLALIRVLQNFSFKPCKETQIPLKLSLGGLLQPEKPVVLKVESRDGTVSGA
Sequence of High affinity nerve growth factor receptor (P04629 whole entry): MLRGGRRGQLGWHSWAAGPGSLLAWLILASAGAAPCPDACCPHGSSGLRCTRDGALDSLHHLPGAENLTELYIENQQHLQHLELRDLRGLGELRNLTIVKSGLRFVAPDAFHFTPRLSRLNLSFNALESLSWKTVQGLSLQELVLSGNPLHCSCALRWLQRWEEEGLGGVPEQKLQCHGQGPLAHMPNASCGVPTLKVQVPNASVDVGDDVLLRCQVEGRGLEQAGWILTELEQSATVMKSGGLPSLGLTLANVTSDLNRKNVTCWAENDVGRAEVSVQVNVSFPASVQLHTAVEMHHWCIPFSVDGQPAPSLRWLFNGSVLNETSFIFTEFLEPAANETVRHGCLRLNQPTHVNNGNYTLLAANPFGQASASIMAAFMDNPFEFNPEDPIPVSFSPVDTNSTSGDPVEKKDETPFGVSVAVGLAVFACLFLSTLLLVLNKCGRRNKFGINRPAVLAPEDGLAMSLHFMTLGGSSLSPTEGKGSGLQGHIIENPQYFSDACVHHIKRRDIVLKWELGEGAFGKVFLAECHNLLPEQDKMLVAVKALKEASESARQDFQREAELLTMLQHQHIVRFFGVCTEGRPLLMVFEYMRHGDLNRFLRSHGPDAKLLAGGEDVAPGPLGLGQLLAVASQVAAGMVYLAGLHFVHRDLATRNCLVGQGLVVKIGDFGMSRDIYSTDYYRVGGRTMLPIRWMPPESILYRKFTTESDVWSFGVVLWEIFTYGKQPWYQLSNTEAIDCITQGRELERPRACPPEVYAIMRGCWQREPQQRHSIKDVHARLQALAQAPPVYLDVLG
Sequence of GTPase KRas (Homo sapiens, UniProt P01116) (P01116 whole entry): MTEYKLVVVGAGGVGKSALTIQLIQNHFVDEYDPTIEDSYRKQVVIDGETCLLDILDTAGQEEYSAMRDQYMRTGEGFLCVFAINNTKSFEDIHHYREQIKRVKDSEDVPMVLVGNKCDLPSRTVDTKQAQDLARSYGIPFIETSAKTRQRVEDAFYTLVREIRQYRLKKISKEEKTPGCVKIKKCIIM
Sequence of Voltage-gated inwardly rectifying potassium channel KCNH2 (Q12809 whole entry): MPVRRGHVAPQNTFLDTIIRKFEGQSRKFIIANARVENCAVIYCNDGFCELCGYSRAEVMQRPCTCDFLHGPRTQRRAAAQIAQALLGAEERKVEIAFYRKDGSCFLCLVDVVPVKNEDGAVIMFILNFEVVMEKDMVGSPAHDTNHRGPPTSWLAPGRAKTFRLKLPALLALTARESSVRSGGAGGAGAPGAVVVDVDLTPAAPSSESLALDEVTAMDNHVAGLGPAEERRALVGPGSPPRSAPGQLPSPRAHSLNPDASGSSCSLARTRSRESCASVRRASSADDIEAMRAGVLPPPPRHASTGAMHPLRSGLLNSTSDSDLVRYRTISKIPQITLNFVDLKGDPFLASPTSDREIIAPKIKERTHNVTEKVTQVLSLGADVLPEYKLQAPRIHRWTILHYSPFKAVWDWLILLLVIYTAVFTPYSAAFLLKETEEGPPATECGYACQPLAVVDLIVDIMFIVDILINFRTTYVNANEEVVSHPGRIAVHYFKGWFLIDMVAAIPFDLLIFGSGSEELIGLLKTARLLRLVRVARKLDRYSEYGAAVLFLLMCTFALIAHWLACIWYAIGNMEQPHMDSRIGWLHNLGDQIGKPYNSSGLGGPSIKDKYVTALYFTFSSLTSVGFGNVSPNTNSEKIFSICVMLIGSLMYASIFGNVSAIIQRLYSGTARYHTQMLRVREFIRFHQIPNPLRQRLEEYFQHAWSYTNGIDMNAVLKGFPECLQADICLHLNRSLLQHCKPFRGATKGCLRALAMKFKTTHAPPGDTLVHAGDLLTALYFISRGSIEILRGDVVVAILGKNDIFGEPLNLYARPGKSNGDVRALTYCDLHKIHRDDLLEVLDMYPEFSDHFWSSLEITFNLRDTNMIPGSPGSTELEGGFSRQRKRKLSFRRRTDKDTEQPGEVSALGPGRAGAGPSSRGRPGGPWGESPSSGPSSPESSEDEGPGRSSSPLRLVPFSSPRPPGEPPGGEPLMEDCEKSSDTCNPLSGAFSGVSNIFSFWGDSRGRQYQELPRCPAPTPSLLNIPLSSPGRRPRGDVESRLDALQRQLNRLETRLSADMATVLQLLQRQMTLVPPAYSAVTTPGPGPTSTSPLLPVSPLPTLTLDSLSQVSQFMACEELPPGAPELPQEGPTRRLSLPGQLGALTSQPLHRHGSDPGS

As a reminder, the IC50 is the midpoint of a concentration-inhibition curve. The Papp A→B is how fast a substance crosses the layer from the apical side. The bioavailability is dose-corrected exposure relative to a reference, in per cent. Low values mean little systemic uptake, high ones much systemic uptake. For orientation: Cmax means the peak of the concentration-time curve. The term half-life denotes the time in which the quantity being followed falls by half. One may read the solubility as how much of the substance goes into solution per volume. A low value points to little dissolved substance. By AUC is commonly meant the area under the concentration-time curve, a measure of exposure. A high value points to high exposure. In the case of `Cc1cnc(-c2nc3c(F)c(-c4cccc(Cl)c4C)c(CCC#N)cc3c3c2cc([C@@H](C)N2CCOCC2=O)n3[C@H]2[C@H]3CN[C@@H]2C3)cn1`, the Activity entry in [1] was “Non-toxic”. Besides, the TDI entry in the series on Cytochrome P450 is listed as “Not_active”. For the same compound, the IC50 at Aurora kinase B is 5800 nM; in series [6], 3900 nM; at Cytochrome P450 2B6, above 20000 nM; against Cytochrome P450 2D6 it was 7200 nM; on Cytochrome P450 3A4 it was 17000 nM; against Cytochrome P450 1A2 it was above 20000 nM. Further, the IC50 was 11200 nM in [19] and above 20000 nM at Cytochrome P450 2C9. Moreover, the Papp A→B at 2 h, 50 µM in series [2] is 3.6 ×10⁻⁶ cm/s. Also, the bioavailability in series [3] worked out at 42%; in [5], 27%. Besides, the QH in the series with Primates [4] was 37%; in series [15], above 100%. The Cmax in [7] is 100 nM; in series [16], 57 nM. Also, the half-life in [8] was 3.8 h; in [13], 6.4 h. The hepatic clearance at 1 µM in series [9] is 16.7 mL/min/kg. The solubility in [10] was above 79 µg/mL; in series [17] it was above 900 µg/mL. This compound also registered an AUC at 24 h in series [11] of 0.331 µM·h. Besides, the figures for the concentration at 24 h in [12] and in [18] were around 950 nM and around 8500 nM, respectively. The same compound showed an AUC in series [14] of 0.95 µM·h.
As usually defined, the inhibition in vivo is the drop in the measured response relative to a control, in per cent. Read a high inhibition in vivo as a response far below the control. With `CC(=O)Nc1cccc(-n2c(=O)n(C3CC3)c(=O)c3c(Nc4ccc(I)cc4F)n(C)c(=O)c(C)c32)c1` [TRAMETINIB], the inhibition in vivo at 6 mg/kg in series [20] was determined as 99%.
As usually defined, the efflux ratio is a quotient of directional permeabilities that is used to spot active efflux. Consider `N#CCCc1cc2c(nc(-c3ccncn3)c3cc(CN4CCOCC4=O)n([C@H]4[C@H]5CN[C@@H]4C5)c32)c(F)c1-c1cccc2ccc(F)cc12`, for which the IC50 in series [21] was 626 nM; on GTPase KRas [22], 3.8 nM; in series [23] it was 17 nM. Besides, the Papp A→B at 2 h, 50 µM in series [2] came out at 1.1 ×10⁻⁶ cm/s. The efflux ratio at 2 h, 50 µM in series [24] was found to be 20. Also, in [9], the hepatic clearance at 1 µM was 11.7 mL/min/kg.
As usually defined, the Kd is the constant that tells how readily two partners part at equilibrium. Turning to `Cc1cc(-c2nc3c(F)c(-c4cccc5ccc(F)cc45)c(CCC#N)cc3c3c2cc(CN2CCOCC2=O)n3[C@H]2[C@H]3CN[C@@H]2C3)ccn1`, the bioavailability in series [25] came to 0%; in series [5], 11%. Also, the half-life in [26] was 8.4 h; in series [8], 3.5 h. For the same compound, the IC50 in [21] was determined as 565 nM; at GTPase KRas [22], 6.9 nM; in [23], 36 nM. In addition, the Papp A→B at 2 h, 50 µM in [2] came to 1.6 ×10⁻⁶ cm/s. Besides, the CL in the series with Primates [27] was 16.2 mL/min/kg. Besides, in [9], the hepatic clearance at 1 µM was 16.7 mL/min/kg. This compound yielded an AUC at 24 h in [11] of 0.108 µM·h. The figures for the QH (in series [15]; in the series with Primates [29]) were above 100% and 37%, respectively. Also, the Cmax in series [28] was found to be 2.5 nM; in series [16], 41.5 nM. For the same compound, in the series with Primates [30], the AUC entry was “Below_limit_of_detection”. At GTPase KRas [31], the equilibrium dissociation constant (Kd) amounted to 1.2 nM.
